Assay results reported in US12522606B2, “Modified pyrrolo- and pyrazolo-pyrimidines for prostate cancer therapy” (University of Washington, priority 2020, dated 2026).
Read-outs that look alike come from different tables or passages of the source.

Assays:
[1] = Plasma protein binding, human; format: in vitro ADME
[2] = system: 42F; experiment: Proliferation EC50, 42F; format: cell-based; conditions: Table 2
[3] = Plasma protein binding, rat; format: in vitro ADME
[4] = system: APIPC; experiment: Proliferation EC50, APIPC; format: cell-based; conditions: Table 2
[5] = system: NCI-H660; experiment: Proliferation EC50, NCI-H660; format: cell-based; conditions: Homo sapiens, Table 2
Experimental: (§1) Anti-tumor activity was determined by screening a series of compounds against the castrate-resistant, androgen-receptor-positive, prostate cancer cell line LNCaP95. […] Inhibition of proliferation was determined based on the level of LNCaP95 cell growth suppression using an MTT assay (NAD(P)H-dependent cellular oxidoreductase enzymatic activities)) read at 72 and 96 hours after addition of the compounds. […] Each cell line was be tested in quadruplicate.
(§2) C4-2 and C4-2B3 are derived from LNCaP but have different characteristics. […] LNCaP, C4-2 and C4-2B require androgen receptor but only LNCaP line is androgen sensitive.
(§3) RWPE-1 is immortalized benign prostate hypertrophic cell line. […] LAPC4 is AR+ castrate resistant line not LNCaP-based prostate cancer. […] HFF1 is human foreskin fibroblast cell line. NCI-H660 is neuroendocrine (NE) prostate cancer human AR− cell line. MSKCC-EF1 is NE human prostate AR- or nearly negative prostate cancer cell line. MCF7 is human breast cancer cell line. U2OS is human osteosarcoma cell line. HepG2 is hepatoma liver tumor cell line. CRL8155 is lymphoblastoid cell line.

[6] = system: LNCaP; experiment: MTT proliferation assay, LNCaP; conditions: Homo sapiens
[7] = system: U2OS; experiment: Proliferation EC50, U2OS; format: cell-based; conditions: Homo sapiens, Table 2
Experimental: as §1, §2, §3

[8] = system: RWPE-1; experiment: Proliferation EC50, RWPE-1; format: cell-based; conditions: Homo sapiens, Table 2
Experimental: as §1, §2, §3

[9] = system: C4-2B; experiment: Proliferation EC50, C4-2B; format: cell-based; conditions: Table 2
Experimental: as §1, §2

[10] = Cell death when mitochondria respiration is blocked (FIGS. 5A-5C); format: cell-based
[11] = system: HEPG2; experiment: Cell toxicity, HEPG2 hepatoma cell line; conditions: read-out: EC50 HepG2; Table 2
[12] = system: intracellular ATP in LNCaP95; experiment: Intracellular ATP in LNCaP95 (CellTiter-Glo); format: cell-based; conditions: FIG. 1, without oligomycin
Experimental: The relative intracellular levels of ATP were evaluated by CellTiter-Glo® Luminescent Cell Viability Assay. 2-DG is 2-deoxy-d-glucose.
OXPHOS is oxidative phosphorylation; oligo is oligomycin; AA is antimycin A; ETX is etomoxir; FCCP is carbonyl cyanide-4-trifluoromethoxy)phenylhydrazone; and Rot is rotenone.

[13] = system: MCF7; experiment: Proliferation EC50, MCF7; format: cell-based; conditions: Homo sapiens, Table 2
Experimental: as §1, §2, §3

[14] = system: 16D; experiment: Proliferation EC50, 16D; format: cell-based; conditions: Table 2
[15] = Plasma protein binding, mouse; format: in vitro ADME
[16] = PK Oral (MMV); format: in vivo; conditions: dose 25 mg/kg
[17] = in vitro; conditions: human, HepG2 hepatoma cell line
[18] = system: 42D; experiment: Proliferation EC50, 42D; format: cell-based; conditions: Table 2
[19] = system: DU145; experiment: Proliferation EC50, DU145; format: cell-based; conditions: Homo sapiens, DU-145; Table 2
[20] = system: LNCaP95; experiment: MTT proliferation assay, LNCaP95; format: cell-based; conditions: Homo sapiens, LNCaP-95
Experimental: as §1

[21] = system: LNCaP cells; experiment: Cell death in LNCaP cells, alone or in combination, 24 h (FIG. 6); format: cell-based
Experimental: FIG. 6 evaluation of Compound 1 and metformin in LNCaP cells. LNCaP cells were treated with Compound 1, oligomycin (Oli), 2-deoxy-d-glucose (2-DG), or metformin (Met), alone or in combination for 24 h.
FIGS. 2-4 provide additional results on the activity of the compounds of the disclosure. […] Co-administration of Compound 1 and metformin is illustrated in FIG. 6. LNCaP cells were treated with Compound 1, oligomycin (Oli), 2-deoxy-d-glucose (2-DG), or metformin (Met), alone or in combination for 24 h. […] None of compounds were sufficient to kill cells under the same conditions on their own.

[22] = system: ATP levels; experiment: Time course of ATP levels, Compound 1 with oligomycin (FIG. 4); format: cell-based; conditions: co-administration with oligomycin
[23] = system: CRL-8155; experiment: Cell toxicity, CRL-8155 lymphoblastoid cell line; conditions: read-out: EC50 CRL8155; Table 2
[24] = system: PC3; experiment: MTT proliferation assay, PC3; conditions: Homo sapiens
[25] = in vitro; conditions: human, CRL-8155 lymphoblastoid cell line
[26] = system: MSKCC-EF1; experiment: Proliferation EC50, MSKCC-EF1; format: cell-based; conditions: Homo sapiens; Table 2
Experimental: as §1, §2, §3

[27] = system: C4-2; experiment: Proliferation EC50, C4-2; format: cell-based; conditions: Table 2
Experimental: as §1, §2

[28] = system: HFF-1; experiment: Proliferation EC50, HFF-1; format: cell-based; conditions: Homo sapiens, Table 2
Experimental: as §1, §2, §3

[29] = system: LAPC4; experiment: Proliferation EC50, LAPC4; format: cell-based; conditions: Homo sapiens, Table 2
Experimental: as §1, §2, §3

[30] = biological target: hERG (Homo sapiens, UniProt Q12809); experiment: hERG; conditions: Table 1; last column beside CC50 (μM), own unit not clearly printed
hERG, sequence (Q12809 whole entry): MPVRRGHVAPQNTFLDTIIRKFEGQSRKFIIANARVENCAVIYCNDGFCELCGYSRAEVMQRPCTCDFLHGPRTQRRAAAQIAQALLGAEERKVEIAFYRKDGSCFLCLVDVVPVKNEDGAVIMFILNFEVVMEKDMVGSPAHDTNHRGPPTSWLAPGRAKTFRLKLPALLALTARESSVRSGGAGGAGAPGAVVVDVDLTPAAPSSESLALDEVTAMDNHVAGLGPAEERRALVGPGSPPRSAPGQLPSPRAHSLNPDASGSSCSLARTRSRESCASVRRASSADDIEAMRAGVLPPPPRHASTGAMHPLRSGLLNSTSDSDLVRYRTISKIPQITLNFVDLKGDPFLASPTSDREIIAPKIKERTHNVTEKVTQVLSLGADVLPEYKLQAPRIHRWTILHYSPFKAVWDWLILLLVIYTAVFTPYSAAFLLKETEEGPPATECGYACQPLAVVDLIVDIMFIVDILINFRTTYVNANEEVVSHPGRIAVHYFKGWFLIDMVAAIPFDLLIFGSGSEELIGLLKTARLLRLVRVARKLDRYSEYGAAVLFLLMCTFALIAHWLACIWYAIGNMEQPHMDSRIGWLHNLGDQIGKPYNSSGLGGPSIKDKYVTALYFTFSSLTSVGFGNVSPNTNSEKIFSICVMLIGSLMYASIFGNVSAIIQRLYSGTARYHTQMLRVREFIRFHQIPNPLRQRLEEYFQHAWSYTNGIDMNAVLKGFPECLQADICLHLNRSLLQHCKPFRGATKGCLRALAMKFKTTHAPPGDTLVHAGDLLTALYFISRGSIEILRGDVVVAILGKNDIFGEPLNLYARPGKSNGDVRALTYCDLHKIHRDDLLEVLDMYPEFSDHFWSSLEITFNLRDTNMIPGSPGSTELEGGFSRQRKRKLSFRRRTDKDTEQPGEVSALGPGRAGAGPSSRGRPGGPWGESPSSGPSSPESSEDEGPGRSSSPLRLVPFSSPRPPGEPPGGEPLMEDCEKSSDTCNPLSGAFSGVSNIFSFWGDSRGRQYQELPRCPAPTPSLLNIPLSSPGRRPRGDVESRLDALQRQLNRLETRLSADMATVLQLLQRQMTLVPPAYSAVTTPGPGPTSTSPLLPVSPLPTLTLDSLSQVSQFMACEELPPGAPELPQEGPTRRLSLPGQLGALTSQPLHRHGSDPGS

## CNc1ncnc2c1c(-c1ccc3cc(OC4CC4)ccc3c1)nn2CC(C)(C)O [Example 1, 1-(3-(6-cyclopropoxynaphthalen-2-yl)-4-(methylamino)-1H-pyrazolo[3,4-d]pyrimidin-1-yl)-2-methylpropan-2-ol]
[1]
  fraction unbound: 0.007
[2]
  EC50: 20 µM
[3]
  fraction unbound: 0.04
[4]
  EC50: 10 µM
[5]
  EC50: 10 µM
[6]; read-out: EC50 LNCaP
  EC50: 8 µM
[6]; read-out: MTT % inhib @ 10 μM LNCaP
  inhibition at 10 µM: 35.4%
[7]
  EC50: > 20 µM
[8]
  EC50: > 20 µM
[9]
  EC50: 12 µM
[10]
  cell death when mitochondria respiration is blocked: induces cell death
[11]
  EC50: > 40 µM
[12]
  change in ATP levels, compound alone: no change
[13]
  EC50: 8 µM
[14]
  EC50: 10 µM
[15]
  fraction unbound: 0.012
[16]
  AUC: 28935 µmol·min/L
[16]; in vivo
  Cmax: 34 µM
  Tmax: 3 h
[17]
  CC50: > 80 µM
[18]
  EC50: 10 µM
[19]
  EC50: > 20 µM
[20]; Table 1, LNCaP95 (AR+ PCa), unit inferred
  EC50: 5 µM
[20]; read-out: MTT % inhib @ 10 μM LNCaP95
  inhibition at 10 µM: 51.5%
[21]
  cell death in combination with oligomycin or metformin: cause cell death
[22]
  earliest time at which ATP levels are altered: 10 min
[23]
  EC50: > 40 µM
[24]; PC-3, read-out: EC50 PC3
  EC50: > 20 µM
[24]; PC-3, read-out: MTT % inhib @ 10 μM PC3
  inhibition at 10 µM: 16.8%
[24]; read-out: EC50 PC3
  EC50: > 20 µM
[25]
  CC50: > 80 µM
[26]
  EC50: 5 µM
[27]
  EC50: 12 µM
[28]
  EC50: > 20 µM
[29]
  EC50: 7 µM
[30]
  hERG: 13.9
